The test system of data set [1] is IGF-1. The conditions noted are these: effective dose, clinical trials; cited from earlier work.
Data set [2] relates to 1.5 cm tear on soleus. Description: Case study: calf muscle (soleus) tear. The data set is classed as in vivo, human. Conditions: transdermal 600 mcg per dose twice daily, total 20 ml. The source says:
The subject was a professional footballer. The athlete incurred at 1.5 cm tear on their soleus near the adjacent aponeurosis to the gastrocnemius. […] A 1.5 cm tear is considered a moderately large tear for the region. […] The fibre tears were directional with the orientation of the fibres. The length of the tear was 1.5 cm.
The subject undertook an intervention of AOD9604 (SEQ ID NO: 1) at 600 mcg per dose. He applied one ml twice daily. The transdermal application was at 600 mcg per ml. The total application was 20 ml.

Data set [3] relates to Chondrocytes isolated from articular cartilage. Description: Chondrocyte culture on collagen type II-coated filter, cartilage tissue formation. The data set is classed as cell-based, calf. The conditions noted are these: for toxicity to cells as determined by DNA content: 10 or 100 μg/ml, 2 weeks of treatment (3 weeks culture), FIG. 1. As to the method:
Chondrocytes were isolated from articular cartilage obtained aseptically from calf metacarpal-carpal joints and seeded onto collagen type II-coated membrane inserts (Millipore™) (1.5×10^6 cells/12 mm diameter membrane). Chondrocytes were grown in Ham's F-12 supplemented with 5% fetal bovine serum (FBS) under standard culture conditions. After 5 days the serum was increased to 20%. Chondrocytes were then grown in the presence and absence of AOD9604 (SEQ ID NO: 1) (10 or 100 μg/ml) for 2 weeks (total culture time 3 weeks). Fresh AOD was added with each change of media.
The tissue was harvested and digested with papain (Sigma, 40 μg/ml) for 48 h at 65° C. DNA content was determined using the Hoechst 33258 dye binding assay (Polysciences) and fluorometry (excitation 365 nm, emission 458 nm). Proteoglycan content was determined by measuring the amount of sulphated glycosaminoglycans using the dimethylmethylene blue dye binding assay and spectrophotometry (525 nm). Collagen content was determined by measuring the hydroxyproline content of an aliquot of the papain digest hydrolyzed in 6N HCl for 18 h at 110° C. The hydroxyproline content was determined using the chloramine-T/Ehrlich's reagent assay and spectrophotometry (560 nm). The cellularity was quantified by measuring the DNA content using Hoescht 33258 dye binding assay (Polysciences) and fluorometry (excitation 365 nm, emission 458 nm).
All experiments were done three times and each condition was done in triplicate. The data was expressed as mean±SD. […]. Significance was determined using two way ANOVA followed by Tukey's post hoc test when multiple groups were being evaluated. T test was utilized if 2 groups were being compared. Significance was assigned at p values <0.05.

Data set [4] deals with tear to the long head of bicep femoris. Description: Case study: hamstring muscle tear. The data set is classed as in vivo, human. Conditions: transdermal 600 mcg per dose twice daily, total 40 ml. The source says:
The subject was a professional footballer. The athlete incurred at 2.0 cm tear to the long head of their bicep femoris. […] Some fibre disruption was noted below the tendon junction coming from the insertion. The length of the tear was 1.5 cm. The fusiform belly region around the injury was highly inflamed.
The subject undertook an intervention of AOD9604 (SEQ ID NO: 1) at 600 mcg per dose. They applied one ml twice daily. The transdermal application was at 600 mcg per ml. The total application was 40 ml.

Data set [5] relates to rabbit collagenase model of osteoarthritis. Description: Rabbit collagenase model of osteoarthritis, intra-articular administration. Conditions: 4 weekly intra-articular injections of 0.25 mg, 9 weeks post collagenase. In kind it is in vivo, New Zealand White Rabbit. How it is done: AOD9604 (SEQ ID NO: 1) was provided by Metabolic Pharmaceutical Pty Ltd.
Treatments groups: 32 rabbits were each given a 2 mg collagenase injection into their right knee joint, followed by a second injection 3 days later to induce osteoarthritis. After 4 weeks, the rabbits were divided into 4 groups of 8 for subsequent treatments.
Group 1 received 4 weekly injections of vehicle (disease control group).
Group 2 received 4 weekly injections of 6 mg of HA-hyuran-plus (HA positive control group).
Group 3 received 4 weekly injections of 0.25 mg of AOD9604 (AOD only group).
Group 4 received 4 weekly injections of both HA and AOD9604 (combination group).
Clinical observations were made by direct observation daily to assess lameness (as described in Kim et al., (2010) supra). At 9 weeks post initial collagenase injection the animals were euthanized.
Gross observation of the right and left knee joints was performed after dissection and scored for damage (as described in Kim et al., (2010) supra). Histological analysis of lateral and medial condyles from each joint was performed and scored.
A statistical analysis of the data was performed and the results are shown in FIGS. 13 (Group 1), 14 (Group 2), 15 (Group 3) and 16 (Group 4).

In data set [6] the test system is contusion to the rectus femoris. Description: Case study: corked quad, hematoma. In kind it is in vivo, human. Conditions: transdermal 600 mcg per dose twice daily, total 20 ml. From the text: The subject was a professional footballer. The athlete incurred a contusion to the rectus femoris adjacent to the central tendon. The MRI indicated an area of 2.0 cm area for the contusion. […] There was a minor degree of associated edema associated with the pathology. The MRI confirmed that there was fibre disruption but no true tear. The central tendon remained intact. The injury was an acute injury. The athlete identified discomfort on weight bearing movement and the mass was easily palpatable. Any hip flexion movement could induce discomfort and awareness of the injury. Although the muscle is not considered a dominant muscle in knee extension movement the affected area was painful and inducing discomfort with such work.
The subject undertook an intervention of AOD9604 (SEQ ID NO: 1) at 600 mcg per dose. They applied one ml twice daily. The transdermal application was at 600 mcg per ml. The total application was 20 ml.

Data set [7] deals with C2C12 cells. Description: C2C12 cell proliferation (DNA content). In kind it is cell-based. Conditions: 10 and 100 μg/ml, 3 days, FIG. 12. As to the method:
C2C12 were grown in monolayer culture in DMEM (high glucose) supplemented with 10% fetal bovine serum under standard cell culture conditions. The cells were passaged at 60-70% confluence. The effect of AOD9604 (SEQ ID NO: 1) on cell proliferation was determined by growing the cells (3000 cells/cm^2) in the absence or presence of AOD9604 (10 and 100 μg/ml) for 3 days. The DNA content was then quantified. The cells were digested by papain and DNA content determined using the Hoechst 33258 dye binding assay (Polysciences) and fluorometry (excitation 365 nm, emission 458 nm).
The data was expressed as mean±SD. The data was expressed as mean±SD. Significance was determined using two way ANOVA followed by Tukey's post hoc test when multiple groups were being evaluated. T test was utilized if 2 groups were being compared. Significance was assigned at p values <0.05.

Data set [8] deals with osteoblast and osteoclast formation. Conditions: cited from earlier work.

Ends that are not written are not given here.

Turning to “YLRIVQCRSVEGSCGF (cysteine pairing not given here) [AOD9604]”, in data set [1], the “plasma level of IGF-1” value was “did not elevate”. In addition, in data set [2], the “follow up MRI” value is “full integrity had returned to the injury”, the “residual pain or discomfort” value is on record as “no residual pain or discomfort”, the resolution of injury entry is “resolved in two weeks” and the “return to weight bearing activities” value is recorded as “returned to full weight bearing activities”. Besides, in data set [3] (100 μg/ml, 3 weeks of culture, FIG. 2), the “proteoglycan content of the tissue” value is given as “increasing”. The “collagen content of the tissue” value in data set [3] (100 μg/ml, 3 weeks of culture, FIG. 3) is “increasing”. For the same sequence, the “toxicity to cells as determined by DNA content” value in data set [3] was “not toxic”. In addition, the “toxicity to cells as determined by DNA content” value in data set [3] (listed as AOD) was “does not have a toxic effect on cells”. In data set [4], the “follow up MRI” value is given as “full integrity had returned to the bicep femoris long head”, the “residual pain or discomfort” value is recorded as “no residual pain or discomfort”, the resolution of injury result is “resolved in three weeks” and the “return to weight bearing activities” value is reported as “returned to full weight bearing activities”. Further, the “regeneration compared to control (histological analysis of condyles)” value in data set [5] is “has regenerative power compared to control”. Further, in data set [6], the “pain or discomfort on resumed weight bearing” value is “no immediate pain or discomfort”, the resolution of injury result is on record as “resolved in two weeks”, the “return to weight bearing activity” value is “returned to full weight bearing activity” and the “subsequent MRI” value was “return to full anatomical integrity”. Moreover, the cell proliferation entry in data set [7] is “did not affect”. Also, the cell proliferation result in data set [7] (listed as AOD) is listed as “does not enhance myotube Formation or alter cell proliferation”. In data set [8], the formation of osteoclasts entry is on record as “without an increase” and the osteoblast formation entry is recorded as “increased”.

(Values after patent publication US10111933B2, “Use of growth hormone fragments” (Metabolic Pharmaceuticals Pty Ltd, priority 2011, dated 2018).)
